The source of these data is patent US20240374558A1, “PREPARATION OF PHENE[…] […] STEREOISOMERS THEREOF AND PRECURSORS THEREOF” (priority 2022, published 2024).

Counter-ions that a name gives are not always drawn.

One assay concerns the target T1, Nav1.5 (Homo sapiens, UniProt Q14524).
T1 construct: host or cells: HEK-293
In words: hNav1.5 Sodium Channel Assay (peak), Qube APC. Conditions: Antagonist mode; HEK-Nav1.5 (Peak); test compound. The assay is classed as cell-based. How it is done: Where presented, IC50 values were determined by a non-linear, least squares regression analysis.
Recombinant HEK-293 cells stably transfected with human NavL.5 cDNA, recombinant HEK293 cell line expressing the human Cavl.2 (L-type voltage gated calcium channel, hCavl.2 alC/02a/a281, and recombinant CHO-K1 cells stably transfected with human hERG cDNA were used separately in each of these assays.
(§1) Ion Channels tested were Eurofins Panel Part Number: CPROFullQB2DR Voltage-Gated Sodium: HEK-Nav1.5 (Peak), HEK-Nav1.5 (Late, Antagonist) Voltage-Gated Potassium: HEK-Kv4.3/KChIP2, CHO-hERG, CHO-KCNQ1/minK Voltage-Gated Calcium: HEK-Cav1.2 Inward-Rectifying Voltage-Gated Potassium: HEK-Kir2.1.
Methods employed in this study have been developed and validated with reliability and reproducibility by Eurofins. Assays were performed under conditions below. […] Peak current is measured during the step to −15 mV. […] Onset and steady state block of hKv4.3 current is measured using a pulse pattern from −80 mV to 40 mV amplitude for a 110 ms duration, and finally a 100 ms ramp (1.2 V/s) to −80 mV. This paradigm is delivered once every 5s to monitor the current amplitude. […] Cavl.2 currents are evoked by a 50 ms pulse to −100 mV followed by a 200 ms pulse to +20 mV before returning to the holding potential of −90 mV. This paradigm is delivered three times every 60s to monitor the current amplitude. [0220] hNav1.5 Late Current Sodium Channel Assay—Qube APC Onset and steady state block of Late Nay1.5 current is measured using a pulse pattern, repeated every 5 sec, consisting of a hyperpolarizing pulse to −120 mV for a 200 ms duration, depolarization to −15 mV amplitude for a 40 ms duration, followed by step to 40 mV for 200 ms and finally a 100 ms ramp (1.2 V/s) to a holding potential of −80 mV. Late current is measured as charge current elicited during the ramp with 50 nM ATXII.

Another assay has as its target T2, Kc4.3/ChIP2 (Homo sapiens, UniProt Q9UK17).
T2 construct: host or cells: HEK
T2 sequence (Q9UK17 1-655): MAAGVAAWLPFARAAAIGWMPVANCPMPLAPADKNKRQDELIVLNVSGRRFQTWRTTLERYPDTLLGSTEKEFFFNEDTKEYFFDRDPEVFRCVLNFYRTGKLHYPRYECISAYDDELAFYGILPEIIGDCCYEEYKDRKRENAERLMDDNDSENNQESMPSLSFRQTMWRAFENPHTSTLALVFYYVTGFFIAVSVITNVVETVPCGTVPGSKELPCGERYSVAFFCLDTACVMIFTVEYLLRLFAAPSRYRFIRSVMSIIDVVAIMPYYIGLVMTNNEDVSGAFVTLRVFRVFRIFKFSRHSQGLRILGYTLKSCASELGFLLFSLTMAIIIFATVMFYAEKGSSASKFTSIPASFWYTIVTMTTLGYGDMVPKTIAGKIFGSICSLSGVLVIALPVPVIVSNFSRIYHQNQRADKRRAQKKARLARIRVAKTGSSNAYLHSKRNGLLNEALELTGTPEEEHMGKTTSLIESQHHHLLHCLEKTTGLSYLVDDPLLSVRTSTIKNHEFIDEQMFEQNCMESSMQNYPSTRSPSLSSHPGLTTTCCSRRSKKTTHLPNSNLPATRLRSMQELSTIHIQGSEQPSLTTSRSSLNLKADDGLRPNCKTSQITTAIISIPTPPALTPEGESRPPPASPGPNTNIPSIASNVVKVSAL
T2 sequence (Q9NS61 1-270 partner): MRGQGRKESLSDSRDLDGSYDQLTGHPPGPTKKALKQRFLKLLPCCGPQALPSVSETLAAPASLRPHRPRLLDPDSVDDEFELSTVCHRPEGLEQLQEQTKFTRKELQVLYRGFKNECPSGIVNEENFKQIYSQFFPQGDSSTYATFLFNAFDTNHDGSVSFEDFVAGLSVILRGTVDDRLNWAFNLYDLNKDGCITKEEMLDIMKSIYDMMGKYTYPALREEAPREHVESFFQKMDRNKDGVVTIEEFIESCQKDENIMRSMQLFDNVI
In words: hKv4.3/hKChIP2 Potassium Channel Assay, Qube APC. The format is cell-based. The settings on record: Antagonist mode; HEK-Kv4.3/KChIP2; test compound. How it is done:
Electrophysiological assays were conducted to profile three compounds ((R)-methylone, (S)-methylone, or racemic methylone) for activities on the ion channel targets specified below using the Qube electrophysiological platform. Where presented, IC50 values were determined by a non-linear, least squares regression analysis. Reference standards were run as an integral part of each assay to ensure the validity of the results obtained.
as §1
Methods employed in this study have been developed and validated with reliability and reproducibility by Eurofins. Assays were performed under conditions below. [0217] hNavL.5 Sodium Channel Assay—Qube APC Onset and steady state block of peak Nay1.5 current is measured using a pulse pattern, repeated every 5 sec, consisting of a hyperpolarizing pulse to −120 mV for a 200 ms duration, depolarization to −15 mV amplitude for a 40 ms duration, followed by step to 40 mV for 200 ms and finally a 100 ms ramp (1.2 V/s) to a holding potential of −80 mV. Peak current is measured during the step to −15 mV. […] Onset and steady state block of hKv4.3 current is measured using a pulse pattern from −80 mV to 40 mV amplitude for a 110 ms duration, and finally a 100 ms ramp (1.2 V/s) to −80 mV. […] [0220] hNav1.5 Late Current Sodium Channel Assay—Qube APC Onset and steady state block of Late Nay1.5 current is measured using a pulse pattern, repeated every 5 sec, consisting of a hyperpolarizing pulse to −120 mV for a 200 ms duration, depolarization to −15 mV amplitude for a 40 ms duration, followed by step to 40 mV for 200 ms and finally a 100 ms ramp (1.2 V/s) to a holding potential of −80 mV. Late current is measured as charge current elicited during the ramp with 50 nM ATXII.

T1 sequence (Q14524 whole entry): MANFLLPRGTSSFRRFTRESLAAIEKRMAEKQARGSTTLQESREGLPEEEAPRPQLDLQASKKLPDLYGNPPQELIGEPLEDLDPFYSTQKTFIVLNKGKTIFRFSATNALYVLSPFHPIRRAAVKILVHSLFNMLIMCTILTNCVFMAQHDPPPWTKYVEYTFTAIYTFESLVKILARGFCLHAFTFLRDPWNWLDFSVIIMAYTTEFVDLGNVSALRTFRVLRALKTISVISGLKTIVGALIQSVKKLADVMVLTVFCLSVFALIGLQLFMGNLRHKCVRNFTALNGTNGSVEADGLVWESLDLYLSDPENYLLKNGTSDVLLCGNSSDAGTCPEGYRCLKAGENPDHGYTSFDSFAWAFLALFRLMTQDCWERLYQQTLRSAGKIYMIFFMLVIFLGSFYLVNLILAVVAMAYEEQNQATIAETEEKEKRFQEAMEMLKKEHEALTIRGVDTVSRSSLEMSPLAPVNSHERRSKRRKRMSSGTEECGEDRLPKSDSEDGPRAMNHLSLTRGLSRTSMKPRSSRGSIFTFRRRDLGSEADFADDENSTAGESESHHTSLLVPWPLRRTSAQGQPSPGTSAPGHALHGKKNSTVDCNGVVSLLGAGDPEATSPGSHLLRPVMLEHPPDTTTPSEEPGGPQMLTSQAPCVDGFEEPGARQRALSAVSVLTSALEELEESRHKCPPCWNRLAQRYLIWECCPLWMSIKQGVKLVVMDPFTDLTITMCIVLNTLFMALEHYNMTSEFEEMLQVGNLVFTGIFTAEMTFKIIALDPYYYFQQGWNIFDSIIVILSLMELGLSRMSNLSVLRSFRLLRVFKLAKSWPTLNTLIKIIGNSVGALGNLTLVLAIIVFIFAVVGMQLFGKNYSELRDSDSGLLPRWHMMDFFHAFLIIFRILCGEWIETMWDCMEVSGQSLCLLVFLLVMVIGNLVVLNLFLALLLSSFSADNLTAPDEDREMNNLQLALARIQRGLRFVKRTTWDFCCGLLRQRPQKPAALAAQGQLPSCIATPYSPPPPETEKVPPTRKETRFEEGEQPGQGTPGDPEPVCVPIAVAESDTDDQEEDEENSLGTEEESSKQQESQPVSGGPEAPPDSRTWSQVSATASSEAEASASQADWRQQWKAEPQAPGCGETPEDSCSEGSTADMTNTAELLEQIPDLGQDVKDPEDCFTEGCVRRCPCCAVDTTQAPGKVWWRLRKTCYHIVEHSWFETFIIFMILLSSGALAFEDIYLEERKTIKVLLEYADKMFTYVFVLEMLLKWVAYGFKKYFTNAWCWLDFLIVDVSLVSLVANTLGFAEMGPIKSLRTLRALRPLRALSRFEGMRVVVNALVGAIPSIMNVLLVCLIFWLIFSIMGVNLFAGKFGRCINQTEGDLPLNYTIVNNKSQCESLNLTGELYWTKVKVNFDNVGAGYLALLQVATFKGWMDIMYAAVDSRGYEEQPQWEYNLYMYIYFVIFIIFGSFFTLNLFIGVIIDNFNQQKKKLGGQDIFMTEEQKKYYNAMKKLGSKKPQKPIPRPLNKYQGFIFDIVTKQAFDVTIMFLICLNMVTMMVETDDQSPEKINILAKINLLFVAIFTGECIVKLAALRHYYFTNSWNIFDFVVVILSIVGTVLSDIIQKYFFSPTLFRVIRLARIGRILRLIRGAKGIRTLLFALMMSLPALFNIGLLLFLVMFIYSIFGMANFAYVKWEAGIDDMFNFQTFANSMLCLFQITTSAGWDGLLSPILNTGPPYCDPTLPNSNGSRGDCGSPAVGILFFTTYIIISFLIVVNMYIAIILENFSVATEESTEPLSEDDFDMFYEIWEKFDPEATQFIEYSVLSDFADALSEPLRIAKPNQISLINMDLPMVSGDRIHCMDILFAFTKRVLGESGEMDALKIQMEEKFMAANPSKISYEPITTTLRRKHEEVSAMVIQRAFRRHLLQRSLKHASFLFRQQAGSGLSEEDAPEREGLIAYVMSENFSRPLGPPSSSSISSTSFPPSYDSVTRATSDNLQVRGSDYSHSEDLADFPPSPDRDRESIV

For the molecule `CN[C@H](C)C(=O)c1ccc2c(c1)OCO2` [(R)-methylone], the “Estimated IC50” value on Nav1.5 and at Kc4.3/ChIP2 was “N/C (N/C indicates observed mean inhibition was <25%)” each time.

In the case of `CN[C@@H](C)C(=O)c1ccc2c(c1)OCO2` [(S)-methylone], the “Estimated IC50” value on Nav1.5 and on Kc4.3/ChIP2 was “N/C (N/C indicates observed mean inhibition was <25%)” throughout.

As to `CNC(C)C(=O)c1ccc2c(c1)OCO2` (stereo not drawn) [Methylone HCl, methylone HCl], the “Estimated IC50” value on Nav1.5 and at Kc4.3/ChIP2 was “N/C (N/C indicates observed mean inhibition was <25%)” in each case.
